pIC50: −log10 of the molar value.
Columns and labels:
ATM enzyme (human) = ATM enzyme (human) (Homo sapiens, UniProt Q13315); assay: ATM kinase assay (HTRF, phosphorylation of GST-cMyc-p53); assay type: biochemical; conditions: 0.5 h; detected concentration 1 μm
Description: ATM enzyme (human) was added to the reaction solution containing 30 nM GST-cMyc-p53 and 10 μM Mg/ATP, and then 50 times the concentration of the tested compound (or reference compound AZD0156) dissolved in 100% DMSO was added to the final concentration of 10 μM/1 μM/0.1 μM/0.01 μM. The reaction was initiated by the addition of a Mg/ATP mixture and incubation for 30 minutes at room temperature, the reaction was quenched by the addition of a stop solution containing EDTA. Finally, the detection buffer containing the d2-labeled anti-GST monoclonal antibody and the europium-labeled anti-phospho p53 (Ser15) antibody was added. The plate was then read in time resolved fluorescence mode and the homogeneous time resolved fluorescence (HTRF) signal was determined according to the equation: HTRF=10000×(Em665nm/Em620nm). Each compound sample was repeated in duplicate. The negative control contained all components except the ATM enzyme, and the positive control contained all components. All reactions were quenched by adding EDTA.
The compounds were serially diluted to 10 concentrations with 100% DMSO at the ratio of 1:3 and 1:10 (the last concentration was negative control of DMSO), then added to the ATM buffer and diluted to a final concentration of 10, 3, 1, 0.3, 0.1, 0.03, 0.01, 0.003, 0.001 and 0 μM, respectively. ATM kinase inhibition was detected by using the method described above. The curve equation for calculating IC50 value is as follows: […]
wherein, C is the concentration of compound and D is the slope factor. Table 2 summarizes the IC50 values of compounds inhibiting ATM kinase.

[1] = tested on: human colon cancer cell SW620; assay: MTT assay, growth of SW620 cells, compounds combined with CPT-11; assay type: cell-based; conditions: Homo sapiens, SW-620, 120 h; 205 nM CPT-11, 5 days, MTT
Description: (§1) SW620 cells were digested by trypsinase, centrifuged at 800 rpm for 5 minutes, the supernatant was discarded, resuspended with fresh medium (RPMI 1640 medium+10% FBS) and counted. The cells were seeded into 96-well cell culture plate with appropriate cell density and incubated overnight in a 37° C. 5% CO2 incubator. The stock solutions of the tested compound and the reference compound AZD0156 were serially diluted to 8 concentrations by DMSO at the ratios of 1:3 and 1:10, respectively, and the last concentration was negative control of DMSO (0 μM, the final concentration of DMSO was 1%). 5 μL of each concentration was added to 120 μL of medium (25 times diluted) and mixed by shaking. The overnight cells were taken and the culture medium was removed, 195 μL of fresh medium containing 205 nM CPT-11 was added to each well, and 5 μL of diluted medium containing the corresponding concentration of the tested sample was added respectively, and the culture plate was then placed in the 5% CO2 cell culture incubator at 37° C. for 5 days. After removing the original solution, 100 μL of fresh serum-free DMEM medium containing MTT (0.5 mg/mL) was added to each well, the culture was continued. After 4 hours, the original solution was removed, 100 μL of DMSO was added into each well, the 96-well plates were shaken away from light for 10 minutes and placed in a multi-function reader to read the absorbance at the wavelength of 552/630/690 nm. GraphPad Prism 6.0 was used to analyze the data. The inhibitory activity of compounds on cell proliferation was plotted based on cell viability and compound concentration. The IC50 value was fitted by a sigmoidal dose response curve equation Y=100/(1+10^(Log C−Log IC50)), where C was the concentration of compound.

[2] = tested on: human breast cancer cell MDA-MB-468; assay: MTT assay, growth of MDA-MB-468 cells; assay type: cell-based; conditions: Homo sapiens, MDA-MB-468, 168 h; single agent, 7 days, MTT
Description: as §1, with “MDA-MB-468 cells” for “SW620 cells”, “1:10, respectively:” for “1:10, respectively, and”, “medium (PRMI 1640+5% FBS)” for “medium containing 205 nM CPT-11”, “for 7 days (On the fourth day, the medium containing drugs was removed and fresh medium containing drugs was added for continuous cultivation).” for “for 5 days.”

ATM enzyme (human), sequence (Q13315 whole entry): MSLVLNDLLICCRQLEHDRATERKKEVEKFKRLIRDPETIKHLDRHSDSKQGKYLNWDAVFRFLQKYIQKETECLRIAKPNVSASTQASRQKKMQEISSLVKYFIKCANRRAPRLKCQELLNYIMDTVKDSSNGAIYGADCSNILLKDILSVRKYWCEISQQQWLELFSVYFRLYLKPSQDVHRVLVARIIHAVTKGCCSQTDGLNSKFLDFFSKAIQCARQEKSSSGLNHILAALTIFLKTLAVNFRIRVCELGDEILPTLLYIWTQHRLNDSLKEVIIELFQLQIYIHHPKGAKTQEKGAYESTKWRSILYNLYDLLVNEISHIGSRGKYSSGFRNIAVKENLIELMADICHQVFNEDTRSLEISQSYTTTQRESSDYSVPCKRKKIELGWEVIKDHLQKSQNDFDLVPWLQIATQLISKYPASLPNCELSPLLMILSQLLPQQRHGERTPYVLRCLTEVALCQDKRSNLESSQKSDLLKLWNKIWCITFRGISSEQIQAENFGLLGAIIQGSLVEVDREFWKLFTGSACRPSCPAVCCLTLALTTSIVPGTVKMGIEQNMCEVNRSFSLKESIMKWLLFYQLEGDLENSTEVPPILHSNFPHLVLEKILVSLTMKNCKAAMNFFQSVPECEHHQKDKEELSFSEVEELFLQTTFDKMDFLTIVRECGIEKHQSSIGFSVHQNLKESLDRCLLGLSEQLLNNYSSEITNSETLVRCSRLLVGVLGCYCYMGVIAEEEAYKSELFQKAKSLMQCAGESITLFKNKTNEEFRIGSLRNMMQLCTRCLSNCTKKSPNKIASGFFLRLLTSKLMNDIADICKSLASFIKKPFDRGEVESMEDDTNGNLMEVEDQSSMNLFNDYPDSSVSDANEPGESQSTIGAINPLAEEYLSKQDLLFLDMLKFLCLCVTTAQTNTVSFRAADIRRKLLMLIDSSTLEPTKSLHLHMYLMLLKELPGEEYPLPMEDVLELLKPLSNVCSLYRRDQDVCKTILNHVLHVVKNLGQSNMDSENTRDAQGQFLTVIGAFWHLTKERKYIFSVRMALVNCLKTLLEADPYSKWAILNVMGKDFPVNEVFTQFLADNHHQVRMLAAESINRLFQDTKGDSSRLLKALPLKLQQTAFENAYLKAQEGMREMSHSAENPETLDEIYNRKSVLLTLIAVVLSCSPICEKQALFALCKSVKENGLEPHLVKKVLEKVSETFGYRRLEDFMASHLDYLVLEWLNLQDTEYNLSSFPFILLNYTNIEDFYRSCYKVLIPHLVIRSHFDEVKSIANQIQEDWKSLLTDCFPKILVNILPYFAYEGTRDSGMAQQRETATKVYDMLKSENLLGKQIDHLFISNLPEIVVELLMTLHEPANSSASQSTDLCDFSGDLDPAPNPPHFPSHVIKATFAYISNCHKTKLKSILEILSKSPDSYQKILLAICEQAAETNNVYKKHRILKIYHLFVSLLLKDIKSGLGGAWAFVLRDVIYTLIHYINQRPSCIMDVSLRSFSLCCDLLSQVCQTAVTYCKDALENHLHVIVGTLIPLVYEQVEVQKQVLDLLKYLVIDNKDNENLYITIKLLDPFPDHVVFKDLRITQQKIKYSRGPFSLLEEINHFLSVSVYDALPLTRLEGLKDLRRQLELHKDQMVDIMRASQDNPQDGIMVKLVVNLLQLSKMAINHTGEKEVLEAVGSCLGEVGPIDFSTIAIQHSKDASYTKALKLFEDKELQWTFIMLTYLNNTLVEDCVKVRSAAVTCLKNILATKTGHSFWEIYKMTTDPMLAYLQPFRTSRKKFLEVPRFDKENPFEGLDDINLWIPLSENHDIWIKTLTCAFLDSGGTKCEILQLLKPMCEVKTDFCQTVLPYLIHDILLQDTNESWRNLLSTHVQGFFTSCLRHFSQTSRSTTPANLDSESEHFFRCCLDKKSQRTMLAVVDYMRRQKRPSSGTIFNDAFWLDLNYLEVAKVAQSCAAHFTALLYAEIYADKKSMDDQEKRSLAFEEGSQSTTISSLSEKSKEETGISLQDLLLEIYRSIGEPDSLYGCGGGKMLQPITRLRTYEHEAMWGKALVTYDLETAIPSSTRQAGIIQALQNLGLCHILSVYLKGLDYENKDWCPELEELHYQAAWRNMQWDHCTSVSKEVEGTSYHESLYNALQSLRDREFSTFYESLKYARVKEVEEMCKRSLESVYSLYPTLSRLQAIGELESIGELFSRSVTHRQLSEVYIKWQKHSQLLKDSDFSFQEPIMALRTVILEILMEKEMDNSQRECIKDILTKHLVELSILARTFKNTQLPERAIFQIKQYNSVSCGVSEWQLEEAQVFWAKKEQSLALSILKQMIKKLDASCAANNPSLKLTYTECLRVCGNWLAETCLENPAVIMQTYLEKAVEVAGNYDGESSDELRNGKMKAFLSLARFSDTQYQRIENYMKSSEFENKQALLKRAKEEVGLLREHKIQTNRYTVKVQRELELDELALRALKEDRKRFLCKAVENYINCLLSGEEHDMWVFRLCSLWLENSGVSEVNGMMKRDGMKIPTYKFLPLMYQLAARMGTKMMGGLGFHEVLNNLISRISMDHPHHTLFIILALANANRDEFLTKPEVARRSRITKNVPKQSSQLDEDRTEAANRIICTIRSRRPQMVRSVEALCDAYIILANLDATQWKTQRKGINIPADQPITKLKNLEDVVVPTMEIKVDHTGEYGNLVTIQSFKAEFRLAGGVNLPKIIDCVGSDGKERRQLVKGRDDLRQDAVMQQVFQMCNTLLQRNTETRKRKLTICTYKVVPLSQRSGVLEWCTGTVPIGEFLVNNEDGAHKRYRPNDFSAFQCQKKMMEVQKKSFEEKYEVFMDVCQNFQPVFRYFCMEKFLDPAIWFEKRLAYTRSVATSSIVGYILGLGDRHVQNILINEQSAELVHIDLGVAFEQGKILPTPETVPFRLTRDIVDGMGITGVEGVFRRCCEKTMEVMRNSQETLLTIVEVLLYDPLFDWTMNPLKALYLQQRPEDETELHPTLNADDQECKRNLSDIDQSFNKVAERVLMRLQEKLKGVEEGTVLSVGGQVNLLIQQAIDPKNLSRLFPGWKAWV

Row | Compound | inhibition at 1 µM (ATM enzyme (human)) | pIC50 [1] | pIC50 [2]
1 | CN(C)CCCOc1ccc(-c2ccc3nc4cccc(-n5ccnc5)c4n3c2)cn1 [Example 9, N,N-dimethyl-3-((5-(9-(1H-imidazol-1-yl)benzo[4,5]imidazo[1,2-a]pyridin-2-yl)pyridin-2-yl)oxy) propan-1-amine] | 60% | 5.03 | 5.44
2 | CN(C)CCCOc1ccc(-c2ccc3nc4cccc(CN5CCOCC5)c4n3c2)cn1 [Example 10, N,N-dimethyl-3-((5-(9-(morpholinomethyl)benzo[4,5]imidazo[1,2-a]pyridin-2-yl)pyridin-2-yl)oxy)propan-1-amine] | 77% | < 5.00 | < 5.00
3 | CN1CCN(c2ccc(-c3cccc4nc5ccc(N6CCOCC6)cc5n34)cn2)CC1 [Example 16, 1-(6-(4-methylpiperazin-1-yl)pyridin-3-yl)-8-morpholinobenzo[4,5]imidazo[1,2-a]pyridine] | 53% | < 5.00 | < 5.00
4 | C[C@@H]1CN(c2ccc(-c3cccc4nc5ccc(N6CCOCC6)cc5n34)cn2)C[C@H](C)N1C [Example 17, 1-(6-((3S,5R)-3,4,5-trimethylpiperazin-1-yl)pyridin-3-yl)-8-morpholinobenzo[4,5]imidazo[1,2-a]pyridine] | 37% | 5.49 | 5.58
5 | CN(C)CCCOc1ccc(-c2ccc3nc4cccc(N5CCN(C)CC5)c4n3c2)cc1C(F)(F)F [Example 44, N,N-dimethyl-3-(2-(trifluoromethyl)-4-(9-(4-methylpiperazin-1-yl)benzo[4,5]imidazo[1,2-a]pyridin-2-yl)phenoxy)propan-1-amine] | 97% | < 6.30 | < 4.00
6 | C[C@@H]1CN(c2cccc3nc4ccc(-c5ccc(N6CCC(N(C)C)CC6)cc5)cn4c23)C[C@H](C)N1C [Example 45, N,N-dimethyl-1-(4-(9-((3S,5R)-3,4,5-trimethylpiperazin-1-yl)benzo[4,5]imidazo[1,2-a]pyridin-2-yl)phenyl)piperidin-4-amine] | 100% | < 6.30 | 6.49

The next lines start with the values.

Row | inhibition at 1 µM (ATM enzyme (human)) | pIC50 [1] | pIC50 [2] | Compound
7 | 88% | 6.28 | 6.15 | CN(C)CCCOc1ccc(-c2ccc3nc4cccc(OC5CCN(C)CC5)c4n3c2)cn1 [Example 12, N,N-dimethyl-3-((5-(9-((1-methylpiperidin-4-yl)oxy)benzo[4,5]imidazo[1,2-a]pyridin-2-yl)pyridin-2-yl)oxy)propan-1-amine]
8 | 39% | 5.62 | < 5.00 | CN(C)CCCOc1ccc(-c2ccc3nc4cccc(NC5CCN(C)CC5)c4n3c2)cn1 [Example 15, N,N-dimethyl-3-((5-(9-(1-methylpiperidin-4-ylamino)benzo[4,5]imidazo[1,2-a]pyridin-2-yl)pyridin-2-yl)oxy)propan-1-amine]
9 | 88% | 5.68 | 5.62 | CN(C)C1CCN(c2ccc(-c3ccc4nc5cccc(N6CCOCC6)c5n4c3)cn2)CC1 [Example 42, N,N-dimethyl-1-(5-(9-morpholinobenzo[4,5]imidazo[1,2-a]pyridin-2-yl)pyridin-2-yl)piperidin-4-amine]
10 | 99% | 5.98 | 6.27 | CN1CCN(c2cccc3nc4ccc(-c5ccc(N6CCC(N(C)C)CC6)c(C(F)(F)F)c5)cn4c23)CC1 [Example 43, N,N-dimethyl-1-(2-(trifluoromethyl)-4-(9-(4-methylpiperazin-1-yl)benzo[4,5]imidazo[1,2-a]pyridin-2-yl)-phenyl)piperidin-4-amine]
11 | 100% | 6.82 | 7.26 | C[C@@H]1CN(c2cccc3nc4ccc(-c5ccc(N6CCC(N(C)C)CC6)c(F)c5)cn4c23)C[C@H](C)N1C [Example 46, N,N-dimethyl-1-(2-fluoro-4-(9-((3S,5R)-3,4,5-trimethylpiperazin-1-yl)benzo[4,5]imidazo[1,2-a]pyridin-2-yl)phenyl)piperidin-4-amine]

From patent publication US11547703B2, “Substituted fused heteroaromatic tricyclic compounds as kinase inhibitors and the use thereof” (IMPACT THERAPEUTICS (SHANGHAI), INC, priority 2017, dated 2023)
